From US4650788A, “Novel peptides having an immunostimulating action, processes for their preparation and their use” (Hoechst Aktiengesellschaft, priority 1983, dated 1987)
Square brackets hold non-standard residues; d marks the D form. Peptide text beside a SMILES is read from it.

Tests used:
[1] = test system: spleen cells of mice (B lymphocytes), in vitro immunization with sheep erythrocytes; experiment: plaque-forming cell test (PFC test); format: cell-based; conditions: Dosage 100 ng/substance/1 ml of cell culture; mouse spleen cell culture, 5 days; untreated control 221 ± 30
Method: […]. The in vitro immunization is effected with 5×10^7 sheep erythrocytes/ml. The test cell cultures are incubated daily with the corresponding dose of the test substance.
After a running time of 5 days, the cells are centrifuged off and washed with medium RPMI 1640 and the direct PFC test is carried out. For this, the cells are mixed with a 10% sheep erythrocyte suspension in an agarose solution and the mixture is poured onto a flat surface. In the layer of gel formed, the stimulated lymphocytes release antibodies during subsequent incubation, and these diffuse into the environment and attach themselves to the sheep erythrocytes therein. After addition of guinea pig complement, the red blood cells lyse. Light-colored round spots which can be seen with the naked eye form in the reddish-brown gel, i.e. the hemolysis areolas of the plaques. An antibody-producing cell is found in the center of such hemolysis areolas. The number of lymphoid cells which form specific immunoglobulins can consequently be equated with the numbers of plaques found.

lymphocytes (T cells) = experiment: PHA stimulation test (lymphocyte transformation test); format: cell-based; conditions: Dosage 100 ng/substance/1 ml of cell culture; 10 μg of PHA/1 ml, 72 hours; untreated control 1.00
Description: In the PHA stimulation test (PHA=phytohemagglutinin) or the lymphocyte transformation test, conclusions as to the number of mature, i.e. stimulatable, lymphocytes are drawn not via investigation of the surface antigens but by the function test for ability to be stimulated by the plant lectin PHA. The lymphocytes (T cells) are stimulated to […] transformation by the lectin, in the same way as by bacterial or viral antigens. This leads to proliferation, either directly or by the release of lymphokins. The incorporation of the radiolabeled thymidine within a certain time is then a measure of the number of stimulated cells. Only the mature or immunologically potent T cells are stimulated. The influence of a substance on lymphocyte maturation can therefore be monitored with this test. However, the stimulation must be sub-optimum, since other sub-populations of lymphocytes are also stimulated at higher concentrations and the effect can no longer be observed. The peptides to be investigated have been added to the culture medium in various concentrations. They are present throughout the entire duration of the test (up to 72 hours).

CC(C)[C@@H]1NC(=O)[C@H](CCC(=O)O)NC(=O)[C@H](CCCCN)NC(=O)[C@H](CCCNC(=N)N)NC(=O)[C@@H](Cc2ccccc2)NC1=O [cyclo-(Arg--Lys--Glu--Val--D-Phe)] (cyclo(EV[dF]RK))
PFC/10^6 cells [1]: 250 ± 31 PFC/10^6 cells

CC(C)[C@H]1NC(=O)[C@H](CCC(=O)O)NC(=O)[C@H](CCCCN)NC(=O)[C@H](CCCNC(=N)N)NC(=O)[C@H](Cc2ccc(O)cc2)NC1=O [cyclo-(Arg--Lys--Glu--D-Val--Tyr), cyclo-(Arg-Lys-Glu-D-Val-Tyr).2 HOAc] (cyclo(E[dV]YRK))
PFC/10^6 cells [1]: 687 ± 73 PFC/10^6 cells | PHA stimulation index (lymphocytes (T cells)): 1.92

CC(C)[C@@H]1NC(=O)[C@H](CCC(=O)O)NC(=O)[C@H](CCCNC(=N)N)NC(=O)[C@@H](CCCCN)NC(=O)[C@H](Cc2ccc(O)cc2)NC1=O [cyclo-(D-Lys--Arg--Glu--Val--Tyr)] (cyclo(EVY[dK]R))
PFC/10^6 cells [1]: 317 ± 41 PFC/10^6 cells | PHA stimulation index (lymphocytes (T cells)): 1.15

CC(C)[C@H]1NC(=O)[C@H](CCC(=O)O)NC(=O)[C@H](CCCCN)NC(=O)[C@H](CCCNC(=N)N)NC(=O)[C@H](Cc2c[nH]c3ccccc23)NC1=O [cyclo-(Arg--Lys--Glu--D-Val--Trp)] (cyclo(E[dV]WRK))
PFC/10^6 cells [1]: 369 ± 54 PFC/10^6 cells | PHA stimulation index (lymphocytes (T cells)): 1.25

CC(C)[C@H]1NC(=O)[C@H](CC(=O)O)NC(=O)[C@H](CCCCN)NC(=O)[C@H](CCCNC(=N)N)NC(=O)[C@H](Cc2c[nH]c3ccccc23)NC1=O [cyclo-(Arg--Lys--Asp--D-Val--Trp)] (cyclo(D[dV]WRK))
PFC/10^6 cells [1]: 312 ± 58 PFC/10^6 cells

CC(C)[C@H]1NC(=O)[C@H](CC(=O)O)NC(=O)[C@H](CCCCN)NC(=O)[C@H](CCCNC(=N)N)NC(=O)[C@H](Cc2ccc(O)cc2)NC1=O [cyclo-(Arg--Lys--Asp--D-Val--Tyr), cyclo-(Arg-Lys-Asp-D-Val-Tyr).2HOAc] (cyclo(D[dV]YRK))
PFC/10^6 cells [1]: 401 ± 64 PFC/10^6 cells | PHA stimulation index (lymphocytes (T cells)): 1.69

CC(C)[C@@H]1NC(=O)[C@H](CC(=O)O)NC(=O)[C@H](CCCNC(=N)N)NC(=O)[C@@H](CCCCN)NC(=O)[C@H](Cc2ccc(O)cc2)NC1=O [cyclo-(D-Lys--Arg--Asp--Val--Tyr)] (cyclo(DVY[dK]R))
PFC/10^6 cells [1]: 341 ± 43 PFC/10^6 cells
